This is an account of results in US7968605B2, “Methods for treating inflammatory disease by administering aldehydes and derivatives thereof” (ALFAMA—Investigação e Desenvolvimento de Produtos …, priority 2002, dated 2011).

Data set [1] is described as follows: CO release from aldehyde prodrug compounds in TBHP plus rpmi solution. As to conditions: for CO release / Rate of CO release: 1.5 ml rpmi + 0.5 ml TBHP, 37° C.
Protocol: (§1) At the appropriate time, 250 μl of the gas mixture was removed from the vial, injected in the gas chromatograph (Trace GC with a TCD detector from Thermo Finnigan, connected to a Chrom-card 32 bit software), and the amount of CO was measured according to previously calibrated conditions.
1.5 ml of rpmi and 0.5 ml of TBHP were added, and the vial was placed at 37° C. with orbital stirring. At the appropriate time, 250 μl of the gas mixture was analysed as described for Example 1.
In data set [2] the test system is adjuvant arthritis. Briefly: Anti-arthritic activity, adjuvant arthritis in Sprague-Dawley rats. It is filed as in vivo. As to conditions: 100 mg/kg/day intraperitoneal for 20 days from day 10. As to the method:
Adjuvant arthritis was induced in outbred Sprague-Dawley rats by intradermal injection into the subplantar area of the right hind paw of 0.1 ml of a 10 mg/ml suspension of Mycobacterium butyricum, killed and dried in Freund's incomplete adjuvant. Treatment was initiated 10 days after disease induction at the time of disease onset. Groups of 7 rats received intraperitoneal injections of compound 1 and compound 2 in 1 ml PBS, each at a dose of 100 mg/kg/day for 20 days. A control group of 7 rats received no treatment. Progression of arthritis was monitored by daily measurements of right and left paw volumes by a water displacement method using a plethysmometer, by daily measurements of the ankle circumference with a flexible strip, and by determination of the arthritic index based on levels of erythema and oedema of the entire paws and digits, number of joints involved, spondylosis, lesions on the tail, movement capacity and infections. The maximum possible score was 11.

Data set [3] deals with adjuvant arthritis. As to the kind of experiment: Anti-arthritic activity, adjuvant arthritis in Lewis rats. The class given is in vivo. The settings on record: for Arthritic score / Increase in paw volume compared to vehicle or untreated rats: 100 and 25 mg/kg daily.
Data set [4] is described as follows: CO release from aldehydes in different media (TBHP, H2O2, rpmi, pH 2), gas chromatograph. As to conditions: for CO release in rpmi: RPMI media with 10% fetal calf serum; for CO release in rpmi / CO release in TBHP solution / CO release in H2O2 solution / Media in which CO release was observed: 37° C.; for CO release in TBHP solution: TBHP solution in excess, aldehyde about 0.11-0.17 M; for Effect of radical trap 2,6-di-tert-butylphenol on CO release in acidic aqueous solution: acidic aqueous solution plus radical trap; for CO release in pH 2 (acidic aqueous) solution: aqueous solution pH 2-2.5, 37° C.; for CO release in H2O2 solution: hydrogen peroxide solution, 35% in water; for Media in which CO release was observed: tested in TBHP, H2O2, rpmi and pH 2 solutions.
Protocol: In each experiment 2 ml of the appropriate solution, TBHP, H2O2, rpmi or pH 2 solution, was added and the vial placed at 37° C. with orbital stirring.
as §1

Where [5] appears, read: 25 mg/kg daily injections for 30 days from day 10.
Setting [6] is: 100 mg/kg daily injections for 30 days from day 10.
[7] abbreviates: listed as 4-ethyl-4-formyl-hexanenitrile.

Turning to `CC(C)(C)C=Nc1ccc(C(=O)O)c(O)c1`, the CO release result in data set [1] is on record as “Stable, but instaneous hydro- lysis was observed when dissolved in water”.

With `CC(C)(C)C=NNC(=O)c1ccccc1`, the CO release entry in data set [1] was “No hydrolysis → No CO”.

As to `CC(C)(C)/C=N/NC(=O)Nc1ccccc1`, the CO release entry in data set [1] was “No hydrolysis → No CO”.

`COC(=O)C1COC(C(C)(C)C)N1` (stereo not shown): in data set [1] (TBHP plus rpmi), the “CO release after 6 hours” value turned out to be 0% and the “CO release after 24 hours” value was determined as 4.2%.

For `CC1C(c2ccccc2)OC(C(C)(C)C)N1C` (stereo not shown), in data set [1], the CO release entry is recorded as “No hydrolysis → No CO”.

Consider `CC(C)(C)C1Nc2ccccc2CO1` (stereo not shown), for which the CO release entry in data set [1] was “No hydrolysis → No CO”.

Take `CC(C)(C)C1NC(C(=O)O)CS1` (racemic) [compound 9, 2-tert-butylthiazolidine-4-carboxylic acid]: in data set [1], the CO release entry is recorded as “released CO” and the “Rate of CO release” value is “fast within the first 6 hours”. In addition, the “CO release after 5 hours” value in data set [1] (TBHP plus rpmi, 5 hours) is on record as 17%. In data set [1] (TBHP plus rpmi), the “CO release after 6 hours” value was “around 16%” and the “CO release after one day” value amounted to 20%. Moreover, in data set [1] (TBHP plus rpmi, 23 hours), the “CO release after 23 hours” value stood at 21%.

For the compound `COC(=O)C1CSC(C(C)(C)C)N1` (racemic) [compound 10], in data set [1], the CO release result is “released CO” and the “Rate of CO release” value was “very slow”. Besides, in data set [1] (TBHP plus rpmi), the “CO release after 6 hours” value amounted to 0.3%, the “CO release after 25 hours” value is listed as 10.3% and the “CO release after one day” value was “about 10%”.

`CC(C)(C)C1NCCS1` (racemic) [compound 11, 2-tert-butyl-thiazolidine]: in data set [1], the CO release entry is “released CO” and the “Rate of CO release” value is given as “initially very slowly”. In data set [1] (TBHP plus rpmi), the “CO release after 6 hours” value was found to be 3%, the “CO release after 24 hours” value amounted to 25% and the “CO release after one day” value is “about 25%”.

In the case of `CC(C)(C)C1NC(C(=O)O)CCS1` (racemic) [compound 12, 2-tert-butyl-[1,3]thiazinane-4-carboxylic acid], the CO release entry in data set [1] is reported as “lower than its 5-membered ring analogue”. For the same compound, in data set [1] (TBHP plus rpmi), the “CO release after 6 hours” value stood at 7.7%, the “CO release after 25 hours” value was 15.8% and the “CO release after one day” value is “about 16%”.

As for `CC(C)(C)C=O` [compound 1, trimethylacetaldehyde], in the data set on adjuvant arthritis [2], the “Body weight after disease onset” value is on record as “No loss of body weight was observed”; the “Paw circumference (right and left)” value is reported as “prevented the increase”; the “Paw volume (right and left)” value is “prevented the increase”. Moreover, in the data set on adjuvant arthritis [3] (setting [5]), the “Increase in body weight by day 40” value was 38.7%. Further, in the data set with adjuvant arthritis [3] (setting [6]), the “Increase in body weight by day 40” value turned out to be 40%. In the data set on adjuvant arthritis [3], the Arthritic score result is listed as “only slightly influenced” and the “Increase in paw volume compared to vehicle or untreated rats” value is reported as “reduced the increase in paw volume”. Besides, in data set [4] (0.23 M aldehyde, varying TBHP, up to 32 eq.), the “Dependence of CO release on TBHP concentration” value is on record as “increased with the concentration of TBHP until approximately eight equivalents of TBHP was reached”. Also, the “CO release at higher and lower aldehyde concentrations relative to maximum” value in data set [4] (0.25 M and 0.08 M aldehyde in TBHP) is reported as “decreased approximately to half”. Moreover, in data set [4] (1.9 M TBHP), the “Aldehyde concentration giving maximum CO release” value is recorded as “around 0.12 M”. Further, in data set [4], the “CO release in rpmi” value is given as “No CO was detected”, the “CO release in TBHP solution” value is on record as “released CO”, the “Effect of radical trap 2,6-di-tert-butylphenol on CO release in acidic aqueous solution” value (shortened to “Effect … in acidic aqueous solution”) is reported as “inhibited” and the “CO release in pH 2 (acidic aqueous) solution” value is reported as “very little”. Besides, the “CO release in H2O2 solution” value in data set [4] is reported as “No CO was detected”. In addition, the “CO release at TBHP concentration of inflamed tissues” value in data set [4] (TBHP 1 mM) is listed as “CO release still was observed”. Besides, the “Effect of radical trap 2,6-di-tert-butylphenol on CO release in TBHP solution” value in data set [4] (TBHP solution plus radical trap) was “inhibited”.

`C=CCC(C)(C)C=O` [compound 2, 2,2-dimethyl-4-pentenal]: in the data set on adjuvant arthritis [2], the “Body weight after disease onset” value was “No loss of body weight was observed”; the “Paw circumference (right and left)” value is given as “prevented the increase”; the “Paw volume (right and left)” value is reported as “prevented the increase”. In addition, in data set [4], the “CO release in rpmi” value is given as “decarbonylation in rpmi observed”, the “CO release in TBHP solution” value is listed as “released CO”, the “CO release in pH 2 (acidic aqueous) solution” value is “very little” and the “CO release in H2O2 solution” value is “No CO release was observed”. Moreover, in data set [4] (listed as 2,2-dimethyl-4-pentenal), the “CO release in rpmi” value is recorded as “even less”.

As for `CCC(C=O)(CC)CCC#N` [compound 3, 4-ethyl-4-formyl-hexanenitrile], in data set [4], the “CO release in rpmi” value is listed as “decarbonylation in rpmi observed”, the “CO release in TBHP solution” value is recorded as “released a very high amount of CO”, the “Effect … in acidic aqueous solution” value is on record as “inhibited the decarbonylation process” and the “CO release in pH 2 (acidic aqueous) solution” value was “decarbonylated significantly”. For the same compound, the “CO release in H2O2 solution” value in data set [4] is on record as “No CO release was observed”. In data set [4] (setting [7]), the “CO release in rpmi” value was “even less” and the “CO release in pH 2 (acidic aqueous) solution” value is “less”.

For `CC(C)(C=O)CO` [compound 4, 3-hydroxy-2,2-dimethylpropanal], the “Time course of CO release in TBHP solution” value in data set [4] (TBHP solution, 0.12 M) is “initially the CO release was small, but within one day, it reached high levels”. The “Media in which CO release was observed” value in data set [4] is “released CO only in TBHP solution”.

Regarding `Cc1ccc(CC(C)(C)C=O)cc1` [compound 6, 2,2-dimethyl-3-(p-methylphenyl)propanal], in data set [4], the “CO release in rpmi” value is “decarbonylation in rpmi observed”, the “Effect … in acidic aqueous solution” value is recorded as “inhibited the decarbonylation process”, the “CO release in pH 2 (acidic aqueous) solution” value is “decarbonylated significantly” and the “Media in which CO release was observed” value is recorded as “released CO in all media tested except H2O2 solution”.

As for `CC(C)(C=O)c1ccccc1` [compound 7, 2-methyl-2-phenylpropionaldehyde], the “Increase in body weight by day 40” value in the data set on adjuvant arthritis [3] (setting [5]) was found to be 28.6%. In the data set on adjuvant arthritis [3] (100 mg/kg), the “Days with significant inhibition of arthritic score relative to vehicle treated rats” value was determined as 14 days and the “Reduction in paw volume compared with dexamethasone” value is on record as “comparable to that seen in rats treated with dexamethasone”. Moreover, the “Increase in body weight by day 40” value with adjuvant arthritis [3] (setting [6]) is listed as 31.6%. In the data set on adjuvant arthritis [3], the Arthritic score result was “only slightly influenced” and the “Increase in paw volume compared to vehicle or untreated rats” value is recorded as “reduced the increase in paw volume”. Also, in data set [4], the “Effect … in acidic aqueous solution” value is “inhibited the decarbonylation process”, the “CO release in pH 2 (acidic aqueous) solution” value was “decarbonylated significantly”, the “CO release in H2O2 solution” value is reported as “responded significantly to decarbonylation” and the “Media in which CO release was observed” value was “released CO in all media tested except rpmi solution”.

Regarding `C[C@@H]1C[C@H]2[C@@H]3CCC4=CC(=O)C=C[C@]4(C)[C@@]3(F)[C@@H](O)C[C@]2(C)[C@@]1(O)C(=O)CO` [dexamethasone, reference compound], the “Increase in body weight by day 40” value in the data set on adjuvant arthritis [3] (dexamethasone 0.3 mg/kg daily for 30 days from day 10) came out at 25.7%.
